{"source": "patent US20240277706A1", "about": "“METHODS AND COMPOSTITIONS FOR TARGETING PD-L1” (Aligos Therapeutics, Inc., priority 2023, published 2024)", "key": {"PD-1/PD-L1 interaction": {"molecular_target": "T1, PD-1/PD-L1 interaction (Homo sapiens, UniProt Q9NZQ7)", "T1 construct": "expressed in transfected cells; Jurkat cells (PD-1 and NFAT-luciferase)", "T1 sequence (Q9NZQ7 19-290)": "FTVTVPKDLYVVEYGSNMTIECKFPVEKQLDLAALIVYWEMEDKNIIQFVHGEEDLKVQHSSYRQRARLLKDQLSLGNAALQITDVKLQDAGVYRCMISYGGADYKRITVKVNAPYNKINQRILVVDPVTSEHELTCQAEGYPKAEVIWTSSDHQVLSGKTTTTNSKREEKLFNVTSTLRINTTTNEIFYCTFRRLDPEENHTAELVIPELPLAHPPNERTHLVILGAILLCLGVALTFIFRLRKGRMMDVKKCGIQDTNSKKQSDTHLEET", "assay": "PD-1/PD-L1 NFAT Reporter Assay (Jurkat/CHO co-culture)", "type": "cell-based", "details": "Jurkat cells overexpressing PD-1 with NFAT luciferase, co-culture with PD-L1 expressing CHO cells, 6 hrs at 37° C.", "method": "Blocking the PD-1/PD-L1 interaction will release the inhibitory signal and results in TCR signaling and NFAT-mediated luciferase activity.\nCHO cells expressing surface-bound anti-CD3 antibodies and PD-L1 were first seeded overnight and treated with the compounds. Jurkat cells overexpressing PD-1 and a luciferase construct under NFAT promoter were then immediately seeded on the monolayer of CHO cells. The co-culture was then incubated for 6 hrs at 37° C. Luciferase activity was assessed by adding the ONE-Glo reagent and measuring luminescence with a plate reader. EC50 values were determined from the fit of the dose-response curves."}, "PD-1/PD-L1": {"molecular_target": "PD-1/PD-L1 (Homo sapiens, UniProt Q9NZQ7)", "sequence (Q9NZQ7 19-238 limits assumed)": "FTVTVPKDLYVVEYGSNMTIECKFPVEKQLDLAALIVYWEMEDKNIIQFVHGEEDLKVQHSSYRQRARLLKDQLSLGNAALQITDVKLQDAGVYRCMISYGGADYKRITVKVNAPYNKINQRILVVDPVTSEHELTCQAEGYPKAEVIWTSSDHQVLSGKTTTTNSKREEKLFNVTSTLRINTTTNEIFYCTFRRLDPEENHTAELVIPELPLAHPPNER", "assay": "PDL1/PD1 Binding Assay", "details": "PDL1-6×His 0.3 nM, PD1-Fc-Avi-Biotin 2.5 nM, acceptor/donor beads, Envision reader; read-out: PD-1/PD-L1 PPI IC50", "method": "Compounds to be tested were serially diluted in DMSO, and further diluted in assay buffer (25 mM Hepes pH 7.4, 150 mM NaCl, 0.005% Tween 20, BSA 0.01%). Diluted compounds were added to the wells with final concentration of DMSO at 1%. PDL1-6×His protein was added to the wells, mixed well with compound. The plates were incubated for 30 min at room temperature. PD1-Fc-Avi-Biotin protein was added to the wells. Final concentration of PDL1 and PD1 protein is 0.3 nM and 2.5 nM, respectively. After a binding time of 30 min at room temperature, Anti-6×His Acceptor beads (final concentration 20 ug/ml) were added to the wells, and the incubation continued for 1 h. Streptavidin Donor beads (final concentration 20 ug/mL) were added at reduced light. The plates were sealed with foil and incubated in the dark for additional 1 h or overnight before reading on an Envision reader. The IC50 values were determined by fitting the curves using a four-parameter equation in Graphpad Prism 8."}}, "data": [{"smiles": "COc1nc(-c2cccc(-c3cccc(NC(=O)c4ccnn(C)c4=O)c3Cl)c2Cl)ccc1CN1CCC(O)(C(=O)O)CC1", "note": "[Compound C-106]", "values": [{"measurement": "EC50", "setting": "PD-1/PD-L1 interaction", "result": "10 to 100", "unit": "nM"}]}, {"smiles": "COc1nc(-c2cccc(-c3cccc(NC(=O)c4ccnn(C)c4=O)c3Cl)c2Cl)ccc1CN1CCC2(C(=O)O)CC2C1", "note": "(stereo not drawn) [Compound C-101]", "values": [{"measurement": "EC50", "setting": "PD-1/PD-L1 interaction", "result": "10 to 100", "unit": "nM"}, {"measurement": "IC50", "setting": "PD-1/PD-L1", "result": "≤ 10", "unit": "nM"}]}, {"smiles": "COc1nc(-c2cccc(-c3cccc(NC(=O)c4ccnn(C)c4=O)c3Cl)c2Cl)ccc1CN1CCC(c2nnn[nH]2)CC1", "note": "[Compound C-95]", "values": [{"measurement": "EC50", "setting": "PD-1/PD-L1 interaction", "result": "10 to 100", "unit": "nM"}, {"measurement": "IC50", "setting": "PD-1/PD-L1", "result": "≤ 10", "unit": "nM"}]}, {"smiles": "COc1nc(-c2cccc(-c3cccc(NC(=O)c4ccnn(C)c4=O)c3Cl)c2Cl)ccc1CN1C[C@@H]2[C@H](C1)[C@H]2C(=O)O", "note": "[Compound C-100]", "values": [{"measurement": "EC50", "setting": "PD-1/PD-L1 interaction", "result": "10 to 100", "unit": "nM"}, {"measurement": "IC50", "setting": "PD-1/PD-L1", "result": "≤ 10", "unit": "nM"}]}, {"smiles": "COc1nc(-c2cccc(-c3cccc(NC(=O)c4ccnn(C)c4=O)c3C)c2Cl)cnc1CN1CCC(C(=O)O)CC1", "note": "[Compound C-105]", "values": [{"measurement": "EC50", "setting": "PD-1/PD-L1 interaction", "result": "10 to 100", "unit": "nM"}, {"measurement": "IC50", "setting": "PD-1/PD-L1", "result": "≤ 10", "unit": "nM"}]}, {"smiles": "CCOC(=O)C1CCN(Cc2ccc(-c3cccc(-c4cccc(NC(=O)c5ccnn(C)c5=O)c4Cl)c3Cl)nc2OC)CC1", "note": "[Compound C-51]", "values": [{"measurement": "Jurkat NFAT EC50", "setting": "PD-1/PD-L1 interaction", "result": "n.r"}, {"measurement": "IC50", "setting": "PD-1/PD-L1", "result": "≤ 10", "unit": "nM"}]}, {"smiles": "COc1nc(-c2cccc(-c3cccc(NC(=O)c4ccnn(C)c4=O)c3Cl)c2Cl)ccc1CN1CC2CCC(C1)C2C(=O)O", "note": "(stereo not drawn) [Compound C-99]", "values": [{"measurement": "EC50", "setting": "PD-1/PD-L1 interaction", "result": "100 to 1000", "unit": "nM"}]}, {"smiles": "COc1nc(-c2cccc(-c3cccc(NC(=O)c4ccnn(C)c4=O)c3Cl)c2Cl)ccc1CN1CCC(C(=O)O)CC1", "note": "[Compound C-43]", "values": [{"measurement": "EC50", "setting": "PD-1/PD-L1 interaction", "result": "10 to 100", "unit": "nM"}, {"measurement": "IC50", "setting": "PD-1/PD-L1", "result": "≤ 10", "unit": "nM"}]}, {"smiles": "COc1nc(-c2cccc(-c3cccc(NC(=O)c4ccnn(C)c4=O)c3Cl)c2Cl)ccc1CN1CCC(F)(C(=O)O)CC1", "note": "[Compound C-97]", "values": [{"measurement": "EC50", "setting": "PD-1/PD-L1 interaction", "result": "10 to 100", "unit": "nM"}, {"measurement": "IC50", "setting": "PD-1/PD-L1", "result": "≤ 10", "unit": "nM"}]}, {"smiles": "COc1nc(-c2cccc(-c3cccc(NC(=O)c4ccnn(C)c4=O)c3Cl)c2Cl)ccc1CN1CCC(C)(C(=O)O)CC1", "note": "[Compound C-96]", "values": [{"measurement": "EC50", "setting": "PD-1/PD-L1 interaction", "result": "10 to 100", "unit": "nM"}, {"measurement": "IC50", "setting": "PD-1/PD-L1", "result": "≤ 10", "unit": "nM"}]}, {"smiles": "COc1nc(-c2cccc(-c3cccc(NC(=O)c4ccnn(C)c4=O)c3Cl)c2Cl)ccc1CN1CCC(OC)(C(=O)O)CC1", "note": "[Compound C-98]", "values": [{"measurement": "EC50", "setting": "PD-1/PD-L1 interaction", "result": "10 to 100", "unit": "nM"}, {"measurement": "IC50", "setting": "PD-1/PD-L1", "result": "≤ 10", "unit": "nM"}]}, {"smiles": "COc1nc(-c2cccc(-c3cccc(NC(=O)c4ccnn(C)c4=O)c3Cl)c2Cl)ccc1CN1CC2CC(C1)C2C(=O)O", "note": "(stereo not drawn) [Compound C-102]", "values": [{"measurement": "EC50", "setting": "PD-1/PD-L1 interaction", "result": "10 to 100", "unit": "nM"}, {"measurement": "IC50", "setting": "PD-1/PD-L1", "result": "≤ 10", "unit": "nM"}]}, {"smiles": "COc1nc(-c2cccc(-c3cccc(NC(=O)c4ccnn(C)c4=O)c3Cl)c2Cl)cnc1CN1CCC(C(=O)O)CC1", "note": "[Compound C-104]", "values": [{"measurement": "EC50", "setting": "PD-1/PD-L1 interaction", "result": "10 to 100", "unit": "nM"}, {"measurement": "IC50", "setting": "PD-1/PD-L1", "result": "≤ 10", "unit": "nM"}]}, {"smiles": "COc1nc(-c2cccc(-c3cccc(NC(=O)c4ccnn(C)c4=O)c3C)c2Cl)ccc1CN1CCC(C(=O)O)CC1", "note": "[Compound C-103]", "values": [{"measurement": "EC50", "setting": "PD-1/PD-L1 interaction", "result": "10 to 100", "unit": "nM"}, {"measurement": "IC50", "setting": "PD-1/PD-L1", "result": "≤ 10", "unit": "nM"}]}, {"smiles": "COc1nc(-c2cccc(-c3cccc(NC(=O)c4ccnn(C)c4=O)c3Cl)c2Cl)ccc1CN1CC(c2nnn[nH]2)C1", "note": "[Compound C-26]", "values": [{"measurement": "EC50", "setting": "PD-1/PD-L1 interaction", "result": "10 to 100", "unit": "nM"}, {"measurement": "IC50", "setting": "PD-1/PD-L1", "result": "≤ 10", "unit": "nM"}]}, {"smiles": "CCOC(=O)C1CCN(Cc2ncc(-c3cccc(-c4cccc(NC(=O)c5ccnn(C)c5=O)c4Cl)c3Cl)nc2OC)CC1", "note": "[Compound C-107]", "values": [{"measurement": "EC50", "setting": "PD-1/PD-L1 interaction", "result": "10 to 100", "unit": "nM"}, {"measurement": "IC50", "setting": "PD-1/PD-L1", "result": "≤ 10", "unit": "nM"}]}]}
